Data: BindingDB's records for patent US12398120 (Bayer Aktiengesellschaft, 2025)

Legend:
[1] = target: T1, A disintegrin and metalloproteinase with thrombospondin motifs 4 (Homo sapiens, UniProt O75173)
T1 sequence (O75173 whole entry): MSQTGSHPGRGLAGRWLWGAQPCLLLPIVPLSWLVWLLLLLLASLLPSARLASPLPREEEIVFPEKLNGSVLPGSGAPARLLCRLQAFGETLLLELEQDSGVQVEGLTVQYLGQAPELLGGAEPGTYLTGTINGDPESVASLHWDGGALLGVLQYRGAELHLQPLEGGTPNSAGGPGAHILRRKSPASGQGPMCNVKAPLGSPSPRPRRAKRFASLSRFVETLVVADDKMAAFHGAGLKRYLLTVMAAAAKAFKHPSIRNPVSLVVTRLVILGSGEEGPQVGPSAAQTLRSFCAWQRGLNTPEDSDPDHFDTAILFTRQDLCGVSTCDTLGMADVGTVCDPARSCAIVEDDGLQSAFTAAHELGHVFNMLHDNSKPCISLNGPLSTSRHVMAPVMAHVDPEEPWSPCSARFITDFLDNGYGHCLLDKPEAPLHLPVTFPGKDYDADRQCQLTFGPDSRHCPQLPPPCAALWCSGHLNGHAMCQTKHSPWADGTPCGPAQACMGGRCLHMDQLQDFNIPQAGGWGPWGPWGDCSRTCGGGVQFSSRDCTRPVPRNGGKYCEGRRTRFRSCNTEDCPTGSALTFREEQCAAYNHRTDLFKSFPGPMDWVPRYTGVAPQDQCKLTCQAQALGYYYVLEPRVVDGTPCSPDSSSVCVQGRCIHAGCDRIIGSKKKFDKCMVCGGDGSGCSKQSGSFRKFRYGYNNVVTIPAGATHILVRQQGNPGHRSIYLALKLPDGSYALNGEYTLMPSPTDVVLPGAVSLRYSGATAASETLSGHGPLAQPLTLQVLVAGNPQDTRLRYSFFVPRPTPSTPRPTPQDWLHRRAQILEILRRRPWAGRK

[2] = target: A disintegrin and metalloproteinase with thrombospondin motifs 7 (Homo sapiens, UniProt Q9UKP4); experiment: Assay for ADAMTS-7 Enzymatic Activity and Testing of Inhibitory Compounds
Chain of A disintegrin and metalloproteinase with thrombospondin motifs 7 (Q9UKP4 whole entry): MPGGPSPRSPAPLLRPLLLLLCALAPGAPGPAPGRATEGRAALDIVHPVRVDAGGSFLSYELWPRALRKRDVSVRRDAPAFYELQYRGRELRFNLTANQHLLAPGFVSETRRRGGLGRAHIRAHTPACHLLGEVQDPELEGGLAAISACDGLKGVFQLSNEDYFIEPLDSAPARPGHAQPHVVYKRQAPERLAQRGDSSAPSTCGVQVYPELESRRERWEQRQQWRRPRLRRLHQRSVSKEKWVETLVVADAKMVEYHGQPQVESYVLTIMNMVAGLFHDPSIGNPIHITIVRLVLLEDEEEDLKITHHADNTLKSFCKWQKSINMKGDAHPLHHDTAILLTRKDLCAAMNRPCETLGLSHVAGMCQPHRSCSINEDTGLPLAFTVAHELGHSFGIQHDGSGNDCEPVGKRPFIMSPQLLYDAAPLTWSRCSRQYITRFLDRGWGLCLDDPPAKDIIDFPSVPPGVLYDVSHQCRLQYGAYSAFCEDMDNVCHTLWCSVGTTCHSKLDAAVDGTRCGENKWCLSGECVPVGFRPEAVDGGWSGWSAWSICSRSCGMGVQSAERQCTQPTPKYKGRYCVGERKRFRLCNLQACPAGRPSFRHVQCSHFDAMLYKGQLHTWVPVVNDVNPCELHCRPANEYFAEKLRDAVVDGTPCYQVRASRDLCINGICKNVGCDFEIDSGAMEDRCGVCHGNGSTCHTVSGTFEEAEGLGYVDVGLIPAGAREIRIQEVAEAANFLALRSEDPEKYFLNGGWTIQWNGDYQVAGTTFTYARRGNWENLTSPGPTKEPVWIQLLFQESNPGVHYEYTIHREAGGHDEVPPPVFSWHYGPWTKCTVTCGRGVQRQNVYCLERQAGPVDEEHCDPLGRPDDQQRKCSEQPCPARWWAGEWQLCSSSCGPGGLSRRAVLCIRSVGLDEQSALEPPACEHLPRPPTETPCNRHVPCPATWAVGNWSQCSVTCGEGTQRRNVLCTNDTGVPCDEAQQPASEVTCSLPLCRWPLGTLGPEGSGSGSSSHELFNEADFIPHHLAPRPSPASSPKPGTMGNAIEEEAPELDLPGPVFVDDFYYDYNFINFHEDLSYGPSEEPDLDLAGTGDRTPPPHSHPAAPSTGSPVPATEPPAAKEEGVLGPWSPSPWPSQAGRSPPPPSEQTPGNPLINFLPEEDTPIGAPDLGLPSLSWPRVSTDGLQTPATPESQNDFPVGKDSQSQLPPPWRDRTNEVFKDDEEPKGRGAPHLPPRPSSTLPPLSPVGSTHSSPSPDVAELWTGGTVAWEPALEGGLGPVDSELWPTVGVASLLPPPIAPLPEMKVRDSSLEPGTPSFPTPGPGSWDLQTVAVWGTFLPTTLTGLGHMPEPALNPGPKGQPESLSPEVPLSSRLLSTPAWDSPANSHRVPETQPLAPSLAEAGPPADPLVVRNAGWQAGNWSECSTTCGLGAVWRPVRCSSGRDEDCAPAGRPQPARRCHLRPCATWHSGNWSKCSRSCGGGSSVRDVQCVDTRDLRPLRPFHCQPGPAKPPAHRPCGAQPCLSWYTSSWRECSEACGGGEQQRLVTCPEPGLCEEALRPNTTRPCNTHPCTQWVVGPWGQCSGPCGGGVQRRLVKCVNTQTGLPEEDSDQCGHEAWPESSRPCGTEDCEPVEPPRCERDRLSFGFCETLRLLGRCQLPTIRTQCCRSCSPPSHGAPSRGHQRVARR
Experimental: An additional carboxyl glutamic acid was added after the QXL520 quencher to increase substrate solubility. […] IC50 values were calculated from percentage of inhibition of ADAMTS-7 activity as a function of test compound concentration.

SMILES: Cc1ccc(-c2cc(F)ccc2C(=O)NC[C@@]2(C3CC3)NC(=O)NC2=O)cc1 [US12398120, Example 100]
- IC50 [1]: 8.1 µM
- IC50 [2]: 0.045 µM

SMILES: CC(C)C1(CNC(=O)c2ccc(F)c(F)c2-c2ccc(C(F)(F)F)cc2)NC(=O)NC1=O (single isomer, unassigned) [US12398120, Example 214]
- IC50 [1]: 37.5 µM
- IC50 [2]: 0.00897 µM

SMILES: Cc1ccc(-c2cc(F)ccc2C(=O)NCC2(c3nccn3C)NC(=O)NC2=O)cc1 (single isomer, unassigned) [US12398120, Example 147]
- IC50 [1]: 1.7 µM
- IC50 [2]: 0.0042 µM
